According to patent US20210161913A1, “OXYGENATED CHOLESTEROL SULFATES FOR THERAPY OF DISORDERS CAUSED BY AT LEAST ONE OF ATTENUATED LEPTIN ACTIVITY AND A LIPID STORAGE DISORDER” (Virginia Commonwealth University, priority 2015, published 2021):

Tests used:
[1] = system: leptin-deficient (obese fa/fa) Zucker rats; assay: Serum lipid levels in leptin-deficient (obese fa/fa) Zucker rats after 25HC3S administration; type: in vivo, rat
Text: To examine the effect of 25HC3S on lipid accumulation in sera and in the liver in a leptin-deficient (obese fa/fa) animal model (Zucker rats), 11 week old Zucker rats (Charles River, Wilmington, Mass.) were randomly assigned into four groups. Obese fa/fa Zucker rats have a defective leptin receptor and serve as a general animal model for deficiencies in leptin activity, whether due to low leptin levels, congenital defects in the leptin receptor or acquired leptin resistance, since all result in inadequate or faulty leptin activity. Further, these animals develop unwanted lipid accumulation after several weeks of life due to a genetic mutation in the leptin receptor. All rats were housed under identical conditions with a 12-hour light/12-hour dark cycle and given free access to water and food. The rats (n=5 in each treatment) were gavaged orally with vehicle (10% cellulose) or 25HC3S (10 mg/kg, 30 mg/kg, and 100 mg/kg) once a day for 21 days and fasted overnight (14 hrs) before collection of samples. To compare with gavage administration, other rats (n=10-17 in each treatment) were intraperitoneally injected with vehicle solution (ethanol/PBS; vehicle) or 25HC3S (50 mg/kg) once every three days for 6 weeks and fasted overnight (14 hrs). Blood samples were collected before sacrifice. Serum triglyceride (TG), total cholesterol (CHOL), high density lipoprotein-cholesterol (HDL-C), alkaline phosphatase (ALK), alanine aminotransferase (ALT), and aspartate aminotransferase (AST) were measured using standard enzymatic techniques. Lipoprotein profiles in sera were analyzed by HPLC in the following descriptions. The lipoproteins, triglycerides and cholesterol in very low density lipoprotein (VLDL), low-density lipoprotein (LDL) and high-density lipoprotein (HDL) were measured by gel filtration using HPLC as previously described (Bai et al., 2012). Briefly, rat serum (100 μl) was eluted with a solvent of 154 mM NaCl with 0.1 mM EDTA (pH 8.0) at a flow rate of 0.2 ml/min via a Pharmacia Superose 6 HR 10/30 FPLC column, and the signal was read at a wavelength of 280 nm. Fractions were collected for 1.2 min each from 20 min up to 100 min. 180 μl of each fraction plus 20 μl of a 10× solution of Wako Total Cholesterol E Reagent (Wako Chemicals USA, Richmond, Va.) was incubated in a 96-well plate at 37° C. for 3 hrs in the dark to analyze cholesterol levels, and the absorbance was read at a wavelength of 595 nm. 2 μl of each fraction plus 200 μl of Infinity™ Triglycerides Reagent (Fisher Scientific, Pittsburgh, Pa.) was incubated in a 96-well plate at 37° C. for 5 minutes in dark to analyze triglyceride levels, and the absorbance was read at a wavelength of 500 nm. The lipoprotein profile was monitored as an internal control.

primary hepatocytes = details: Ma et al., 2008, Ren et al., 2007, Xu et al., 2010; cited from earlier work
THP-1 macrophages = details: Ma et al., 2008, Ren et al., 2007, Xu et al., 2010; cited from earlier work
[2] = system: leptin-deficient (obese fa/fa) Zucker rats; assay: Liver histo-morphology (HE and Oil Red O staining), hepatic lipidosis in Zucker rats; type: in vivo, rat; set-up: key to Force Rank (Oil Red O): 1 = least severe; 5 = most severe; details: for Force Rank (Oil Red O) / Severity of Hepatic Lipidosis: N = 5 males
Text: To examine the effect of 25HC3S on lipid accumulation in sera and in the liver in a leptin-deficient (obese fa/fa) animal model (Zucker rats), 11 week old Zucker rats (Charles River, Wilmington, Mass.) were randomly assigned into four groups. Obese fa/fa Zucker rats have a defective leptin receptor and serve as a general animal model for deficiencies in leptin activity, whether due to low leptin levels, congenital defects in the leptin receptor or acquired leptin resistance, since all result in inadequate or faulty leptin activity. Further, these animals develop unwanted lipid accumulation after several weeks of life due to a genetic mutation in the leptin receptor. All rats were housed under identical conditions with a 12-hour light/12-hour dark cycle and given free access to water and food. The rats (n=5 in each treatment) were gavaged orally with vehicle (10% cellulose) or 25HC3S (10 mg/kg, 30 mg/kg, and 100 mg/kg) once a day for 21 days and fasted overnight (14 hrs) before collection of samples. To compare with gavage administration, other rats (n=10-17 in each treatment) were intraperitoneally injected with vehicle solution (ethanol/PBS; vehicle) or 25HC3S (50 mg/kg) once every three days for 6 weeks and fasted overnight (14 hrs). Blood samples were collected before sacrifice. Serum triglyceride (TG), total cholesterol (CHOL), high density lipoprotein-cholesterol (HDL-C), alkaline phosphatase (ALK), alanine aminotransferase (ALT), and aspartate aminotransferase (AST) were measured using standard enzymatic techniques. Lipoprotein profiles in sera were analyzed by HPLC in the following descriptions. Three specimens from different regions of the liver of each rat were collected and fixed in 4% paraformaldehyde in 0.1 M phosphate buffer at room temperature overnight. The regions of the specimens were standardized for all rats. The paraffin-embedded tissue sections (4 μm) were stained with hematoxylin and eosin (HE). 3-3′-Diaminobenzidine (DAB) was used as the chromogen, and hematoxylin was used as the nuclear counterstain. Determination of total intracellular lipids: Oil Red O staining of intracellular neutral lipids: the liver slides were fixed with 3.7% formaldehyde in PBS for 30 min followed by two washes with phosphate-buffered saline (PBS). The cells were stained with 0.2% Oil Red O in 60% 2-propanol for 10 min and washed three times with PBS. The images were taken with the use of a microscope (Olympus, Tokyo, Japan) equipped with image recorder under 40× lenses. All slides of tissue were qualitatively examined by light microscopy by a board certified veterinary pathologist. The incidence and severity of the lesions were scored. Lesions were also assessed for duration and distribution.

[3] = system: leptin-deficient (obese fa/fa) Zucker rats; assay: Quantification of hepatic lipids in Zucker rats; type: in vivo, rat; details: 21 days
Text: To examine the effect of 25HC3S on lipid accumulation in sera and in the liver in a leptin-deficient (obese fa/fa) animal model (Zucker rats), 11 week old Zucker rats (Charles River, Wilmington, Mass.) were randomly assigned into four groups. Obese fa/fa Zucker rats have a defective leptin receptor and serve as a general animal model for deficiencies in leptin activity, whether due to low leptin levels, congenital defects in the leptin receptor or acquired leptin resistance, since all result in inadequate or faulty leptin activity. Further, these animals develop unwanted lipid accumulation after several weeks of life due to a genetic mutation in the leptin receptor. All rats were housed under identical conditions with a 12-hour light/12-hour dark cycle and given free access to water and food. The rats (n=5 in each treatment) were gavaged orally with vehicle (10% cellulose) or 25HC3S (10 mg/kg, 30 mg/kg, and 100 mg/kg) once a day for 21 days and fasted overnight (14 hrs) before collection of samples. To compare with gavage administration, other rats (n=10-17 in each treatment) were intraperitoneally injected with vehicle solution (ethanol/PBS; vehicle) or 25HC3S (50 mg/kg) once every three days for 6 weeks and fasted overnight (14 hrs). Blood samples were collected before sacrifice. Serum triglyceride (TG), total cholesterol (CHOL), high density lipoprotein-cholesterol (HDL-C), alkaline phosphatase (ALK), alanine aminotransferase (ALT), and aspartate aminotransferase (AST) were measured using standard enzymatic techniques. Lipoprotein profiles in sera were analyzed by HPLC in the following descriptions.
Liver tissues were homogenized, and the hepatic total lipids were extracted using a mixture of chloroform and methanol (2:1, v:v). After the extracts were filtered, 0.2 ml of each was evaporated to dryness and dissolved in 100 μl of isopropanol containing 10% Triton™ X-100 for cholesterol assay (Wako Chemicals USA, Richmond, Va.), 100 μl of NEFA solution (0.5 g of EDTA-Naz, 2 g of Triton™ X-100, 0.76 ml of 1N NaOH, and 0.5 g of sodium azide/1, pH 6.5) for the free fatty acid assay (Wako Chemicals USA, Richmond, Va.), or 100 μl of isopropanol only for the triglyceride assay (Fisher Scientific, Pittsburgh, Pa.). Each lipid concentration was normalized by liver weight.

[4] = gavage administration once a day for 21 days, fasted overnight, vs vehicle
[5] = intraperitoneal administration, 50 mg/kg once every three days
[6] = gavage 10 mg/kg, normalized by liver weight

CC(CCCC(C)(C)O)C1CCC2C3CC=C4CC(OS(=O)(=O)O)CCC4(C)C3CCC12C (stereo not shown) [25HC3S, 5-cholesten, 3-, 25-diol, 3-sulfate]
decrease of plasma CHOL [1, 4]: 17%
decrease of plasma TG [1, 4]: 30%
change in HDL levels ([1]; gavage administration, 21 days): no significant change
change in LDL levels ([1]; gavage administration, 21 days): no significant change
serum HDL [1, 5]: significantly decreased
serum total cholesterol [1, 5]: significantly decreased
serum triglyceride [1, 5]: significantly decreased
lipid accumulation (primary hepatocytes): reduce lipid accumulation
lipid accumulation (THP-1 macrophages): reduce lipid accumulation
Force Rank (Oil Red O) ([2]; 10 mg/kg/day gavage): 4
Severity of Hepatic Lipidosis ([2]; 10 mg/kg/day gavage): Mild to moderate
Force Rank (Oil Red O) ([2]; 30 mg/kg/day gavage): 3
Severity of Hepatic Lipidosis ([2]; 30 mg/kg/day gavage): Mild to moderate
Force Rank (Oil Red O) ([2]; 50 mg/kg IP every 3 days): 2
Severity of Hepatic Lipidosis ([2]; 50 mg/kg IP every 3 days): Mild
Force Rank (Oil Red O) ([2]; 100 mg/kg/day gavage): 1
Severity of Hepatic Lipidosis ([2]; 100 mg/kg/day gavage): Mild
lipid inclusions in hepatocytes (HE stained liver sections) ([2]; 10, 30 and 100 mg/kg PO (FIGS. 3B, C, D) vs control rats): significantly decreased
liver free cholesterol concentration ([3]; administration of 25HC3S): not affected
reduction of liver tissue free fatty acids [3, 6]: 26%
reduction of liver tissue total cholesterol [3, 6]: 25%
reduction of liver tissue triglyceride [3, 6]: 43%
